Values after ≈ are worked out from the molar mass of the structure shown.
Key:
[1] = Metabolic stability in mouse liver microsomes assessed as intrinsic clearance at 1 uM measured upto 40 mins in presence of NADPH by LC-MS/MS analysis; assay type: ADME, Microsome; details: read-out: CLH
[2] = biological target: T1, cGMP-dependent protein kinase 1 (Homo sapiens, UniProt Q13976); assay: Inhibition of full length recombinant N-terminal GST-tagged human PKG expressed in baculovirus infected Sf9 insect cells using RSK as substrate preincubated for 15 mins followed by substrate addition and measured after 30 mins in presence of ATP by ADP Glo kinase assay
T1 sequence (Q13976 whole entry): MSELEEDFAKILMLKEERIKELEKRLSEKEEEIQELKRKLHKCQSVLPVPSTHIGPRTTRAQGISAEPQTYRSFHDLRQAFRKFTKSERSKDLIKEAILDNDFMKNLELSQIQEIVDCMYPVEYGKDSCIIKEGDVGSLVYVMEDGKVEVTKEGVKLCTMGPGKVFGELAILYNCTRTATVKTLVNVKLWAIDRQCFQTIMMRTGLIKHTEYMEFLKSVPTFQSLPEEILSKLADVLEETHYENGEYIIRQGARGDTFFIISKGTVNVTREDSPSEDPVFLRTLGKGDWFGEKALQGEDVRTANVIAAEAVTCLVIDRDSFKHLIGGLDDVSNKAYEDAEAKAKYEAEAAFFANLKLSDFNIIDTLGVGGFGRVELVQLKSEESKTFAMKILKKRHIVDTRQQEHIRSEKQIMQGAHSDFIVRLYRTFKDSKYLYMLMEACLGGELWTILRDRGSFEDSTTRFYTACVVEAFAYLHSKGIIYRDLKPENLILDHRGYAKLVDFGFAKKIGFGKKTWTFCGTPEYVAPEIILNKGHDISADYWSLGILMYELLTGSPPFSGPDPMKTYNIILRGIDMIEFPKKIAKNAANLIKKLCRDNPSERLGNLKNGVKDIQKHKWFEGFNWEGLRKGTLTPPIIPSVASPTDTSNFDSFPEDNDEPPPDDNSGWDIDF

[3] = Kinetic solubility of the compound in pH 7.4 PBS buffer incubated for 2 hrs using orbital shaker by LC-UV mass spectrometry; assay type: physicochemical; details: read-out: Kinetic_solubility
[4] = Inhibition of ROCK in rat A7R5 cells assessed as cofilin serine 3 phosphorylation incubated for 1 hr by ICW assay; details: A7R5, 1 h
[5] = Distribution coefficient, logD of compound by chromatographic method; assay type: physicochemical; details: octanol/water
[6] = Lipophilicity, logP of compound; assay type: physicochemical; details: octanol/water
[7] = Apparent permeability in MDCK-MDR1 cells at 10 uM after 1 hr by LC-MS/MS analysis; assay type: ADME, cell-based, Canis lupus familiaris; details: dog
[8] = biological target: Rho-associated protein kinase 2 (Homo sapiens, UniProt O75116); assay: Inhibition of recombinant N-terminal GST-tagged human ROCK2 (5 to 554 residues) expressed in baculovirus infected Sf9 cells using S6K as substrate incubated for 30 mins in presence of ATP by ADP Glo kinase assay
[9] = Clearance in C57BL/6 mouse plasma at 2 mg/kg, iv; assay type: ADME, organism-based
[10] = Unbound AUC in C57BL/6 mouse brain at 10 mg/kg, po by LC-MS/MS analysis; assay type: ADME, organism-based; details: in vivo
Cytochrome P450 1A2 = biological target: T2, Cytochrome P450 1A2 (Homo sapiens, UniProt P05177); assay: Time dependent inhibition of CYP1A2 in pooled human liver microsomes using […] as substrate preincubated for 30 mins in presence of NADPH followed by substrate addition and measured after 10 mins by LC-MS/MS analysis; assay type: ADME, Microsome
T2 sequence (P05177 whole entry): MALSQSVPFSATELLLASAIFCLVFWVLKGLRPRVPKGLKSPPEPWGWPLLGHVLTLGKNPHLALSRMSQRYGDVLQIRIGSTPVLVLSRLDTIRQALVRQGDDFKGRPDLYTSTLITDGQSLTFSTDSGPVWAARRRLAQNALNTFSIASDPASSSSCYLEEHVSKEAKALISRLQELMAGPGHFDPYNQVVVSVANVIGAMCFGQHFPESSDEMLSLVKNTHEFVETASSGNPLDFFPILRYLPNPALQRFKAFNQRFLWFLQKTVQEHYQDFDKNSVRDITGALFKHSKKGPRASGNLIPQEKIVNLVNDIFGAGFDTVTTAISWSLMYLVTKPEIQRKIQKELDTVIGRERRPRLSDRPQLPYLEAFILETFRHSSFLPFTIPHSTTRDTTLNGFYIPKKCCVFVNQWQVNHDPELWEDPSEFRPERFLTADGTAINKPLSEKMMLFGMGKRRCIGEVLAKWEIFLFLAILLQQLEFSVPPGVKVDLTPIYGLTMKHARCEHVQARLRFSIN

[11] = Unbound AUC in C57BL/6 mouse plasma at 10 mg/kg, po by LC-MS/MS analysis; assay type: ADME, organism-based; details: in vivo
[12] = Oral bioavailability in C57BL/6 mouse at 10 mg/kg; assay type: ADME, organism-based; details: in vivo
MDR1 = assay: in vitro; details: dog, MDCK-MDR1
Description: Efflux ratio of apparent permeability across basolateral to apical side to apical to basolateral side in MDCK-MDR1 cells at 10 uM measured after 1 hr by LC-MS/MS analysis

[13] = biological target: RAC-alpha serine/threonine-protein kinase (Homo sapiens, UniProt P31749); assay: Inhibition of AKT (unknown origin)
RAC-alpha serine/threonine-protein kinase, sequence (P31749 whole entry): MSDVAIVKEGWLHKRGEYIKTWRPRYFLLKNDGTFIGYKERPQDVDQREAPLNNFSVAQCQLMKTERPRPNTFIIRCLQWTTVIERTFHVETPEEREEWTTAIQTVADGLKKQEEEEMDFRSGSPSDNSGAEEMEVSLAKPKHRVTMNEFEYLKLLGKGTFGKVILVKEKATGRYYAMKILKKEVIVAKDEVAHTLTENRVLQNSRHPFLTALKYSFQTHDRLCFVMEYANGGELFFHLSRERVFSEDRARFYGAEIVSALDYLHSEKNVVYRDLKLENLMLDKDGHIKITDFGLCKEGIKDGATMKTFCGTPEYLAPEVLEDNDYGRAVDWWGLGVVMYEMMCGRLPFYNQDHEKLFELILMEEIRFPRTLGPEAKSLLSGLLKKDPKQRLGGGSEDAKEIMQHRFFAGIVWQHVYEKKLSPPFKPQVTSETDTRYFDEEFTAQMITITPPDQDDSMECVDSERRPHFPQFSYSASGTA

Rho-associated protein kinase 2, sequence (O75116 whole entry, the tested form may be a part): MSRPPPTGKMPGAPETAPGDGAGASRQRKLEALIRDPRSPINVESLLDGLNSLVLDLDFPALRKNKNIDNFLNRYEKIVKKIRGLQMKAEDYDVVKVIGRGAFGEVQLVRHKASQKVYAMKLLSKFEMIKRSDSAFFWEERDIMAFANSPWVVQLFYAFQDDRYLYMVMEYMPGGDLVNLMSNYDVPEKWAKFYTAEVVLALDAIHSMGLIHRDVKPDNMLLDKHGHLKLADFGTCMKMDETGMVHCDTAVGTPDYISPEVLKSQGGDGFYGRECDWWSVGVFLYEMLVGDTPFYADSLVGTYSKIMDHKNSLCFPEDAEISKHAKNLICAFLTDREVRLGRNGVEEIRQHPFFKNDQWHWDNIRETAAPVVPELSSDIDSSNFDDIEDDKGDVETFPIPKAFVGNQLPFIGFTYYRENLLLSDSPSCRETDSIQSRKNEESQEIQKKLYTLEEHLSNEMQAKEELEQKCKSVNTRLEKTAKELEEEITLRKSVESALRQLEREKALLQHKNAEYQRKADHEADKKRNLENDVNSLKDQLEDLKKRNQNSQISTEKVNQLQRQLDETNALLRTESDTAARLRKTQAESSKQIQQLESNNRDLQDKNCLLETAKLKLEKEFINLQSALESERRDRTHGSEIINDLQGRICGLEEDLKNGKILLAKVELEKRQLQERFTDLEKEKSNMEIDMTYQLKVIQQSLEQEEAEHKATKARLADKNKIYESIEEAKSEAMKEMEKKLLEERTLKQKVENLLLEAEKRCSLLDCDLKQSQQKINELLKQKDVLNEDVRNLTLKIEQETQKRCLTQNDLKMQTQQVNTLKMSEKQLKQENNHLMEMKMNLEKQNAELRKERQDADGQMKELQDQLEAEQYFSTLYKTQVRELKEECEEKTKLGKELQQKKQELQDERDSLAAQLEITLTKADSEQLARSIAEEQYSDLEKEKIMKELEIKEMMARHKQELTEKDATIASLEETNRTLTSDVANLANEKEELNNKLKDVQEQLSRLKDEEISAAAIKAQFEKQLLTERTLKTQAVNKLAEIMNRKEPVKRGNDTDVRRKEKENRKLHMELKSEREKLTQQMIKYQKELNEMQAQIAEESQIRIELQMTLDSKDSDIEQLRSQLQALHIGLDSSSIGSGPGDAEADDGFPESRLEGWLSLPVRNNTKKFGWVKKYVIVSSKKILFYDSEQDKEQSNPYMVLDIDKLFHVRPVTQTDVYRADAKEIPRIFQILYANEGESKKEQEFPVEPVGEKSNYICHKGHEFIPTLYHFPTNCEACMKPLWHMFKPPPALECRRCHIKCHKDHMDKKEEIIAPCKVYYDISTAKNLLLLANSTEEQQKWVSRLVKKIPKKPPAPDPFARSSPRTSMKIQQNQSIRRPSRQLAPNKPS

Row | Structure (SMILES) | IC50 [2] [nM] | solubility kinetic at 2 h [3] [µM] | IC50 [4] [nM] | IC50 [8] [nM] | further results
1 | COc1ccc(Cl)c([C@@H](C)NC(=O)N2CCN(c3ccncc3F)C[C@H]2C)c1 | 11600 | 120 (≈ 48.8 µg/mL) | 164 |  | CLint scaled at 1 µM [1]: 199 mL/min/kg; chromatographic logD [5]: 2.7; logP [6]: 3.3; Papp at 1 h, 10 µM [7]: 122 ×10⁻⁶ cm/s
2 | COc1cccc([C@@H](C)NC(=O)[C@H]2CC[C@@H](c3ccncc3)CC2)c1 | 24300 |  | > 5000 | 4330 | 
3 | CS(=O)(=O)Nc1cccc(CC(=O)Nc2cc(-c3ccnc(F)c3)cs2)c1 |  | 77 (≈ 31.2 µg/mL) |  |  | logP [6]: 3.45
4 | COc1cccc([C@@H](C)NC(=O)N2CC[C@@H](c3ccncc3)C[C@@H]2C)c1 | 53700 |  | 4930 | 1300 | 
5 | COc1ccc(F)c([C@@H](C)NC(=O)N2CCN(c3ccncc3F)C[C@H]2C)c1 | 13100 |  | 108 | 7 | 
6 | COc1cccc(CC(=O)Nc2cc(-c3ccnc(F)c3)cs2)c1 |  | 17 (≈ 5.82 µg/mL) | 830 | 15 | chromatographic logD [5]: 2.83; logP [6]: 4.53
7 | COc1cccc([C@@H](C)NC(=O)N2CC[C@@H](c3ccncc3)C[C@H]2C)c1 | 19400 |  | 249 | 35 | 
8 | COc1cccc([C@@H](C)NC(=O)[C@@H]2CC[C@@H](c3ccncc3)C[C@@H]2C)c1 |  | 11 (≈ 3.88 µg/mL) | > 5000 | 851 | 
9 | C[C@@H](N)[C@H]1CC[C@H](C(=O)Nc2ccncc2)CC1 [Y-27632] |  |  | 3030 |  | chromatographic logD [5]: 1.03; logP [6]: 0.62
10 | COc1cccc([C@@H](C)NC(=O)c2ccc(-c3ccnc(F)c3)cn2)c1 |  |  | 1030 | 50 | 
11 | COc1cccc([C@@H](C)NC(=O)c2ccc(-c3ccncc3)nc2)c1 | 39 |  | 44 | 4 | 
12 | COc1cccc([C@@H](C)NC(=O)N2CCN(c3ccncc3)CC2)c1 |  |  | 1460 | 4790 | 
13 | COc1cc(F)cc([C@@H](C)NC(=O)N2CCN(c3ccncc3F)C[C@H]2C)c1 | 1700 | 140 (≈ 54.7 µg/mL) | 15 |  | CLint scaled at 1 µM [1]: < 65 mL/min/kg; clearance [9]: 85 mL/min/kg; chromatographic logD [5]: 2.4; fAUC [10]: 40 nM·kg·h/mg; IC50 (Cytochrome P450 1A2): 1100 nM; logP [6]: 2.7; fAUC [11]: 30 nM·kg·h/mg; bioavailability [12]: 78%; Papp at 1 h, 10 µM [7]: 98.4 ×10⁻⁶ cm/s
14 | C[C@@H]1CN(c2ccncc2F)CCN1C(=O)N[C@H](C)c1cccc2nccn12 | 8140 |  | 18 |  | 
15 | COc1cccc([C@@H](C)NC(=O)N2CCN(c3ccncc3F)C[C@H]2C)c1F | 50900 | 150 (≈ 58.6 µg/mL) | 323 |  | efflux ratio at 1 h, 10 µM (MDR1): 1.3; CLint scaled at 1 µM [1]: 79 mL/min/kg; chromatographic logD [5]: 2.3; logP [6]: 2.6; Papp at 1 h, 10 µM [7]: 79.7 ×10⁻⁶ cm/s
16 | COc1cccc([C@@H](C)NC(=O)N2CCN(c3ccncc3)C(=O)C2)c1 |  |  | > 5000 | 534 | 
17 | COc1cccc([C@@H](C)NC(=O)N2CC[C@H](c3ccncc3)C[C@H]2C)c1 | 23000 |  | 71 | 9 | 
18 | COc1cccc([C@@H](C)NC(=O)c2ccc(-c3ccnc(F)c3)nn2)c1 | 3600 |  | 4270 | 280 | 
19 | COc1cccc([C@@H](C)NC(=O)c2ccc(-c3ccnc(F)c3)cc2)c1 | 17 |  | 77 |  | IC50 [13]: 2370 nM
20 | COc1cccc([C@@H](C)NC(=O)N2CCN(c3ccncn3)C[C@H]2C)c1 | 36500 |  | 264 | 23 | 
21 | COc1cccc([C@@H](C)NC(=O)N2CC[C@H](c3ccncc3)C[C@@H]2C)c1 | 48800 |  | 3310 | 1640 | 
22 | COc1cc([C@@H](C)NC(=O)N2CCN(c3ccncc3F)C[C@H]2C)ccc1F | 2340 |  | 33 | 3 | 
23 | C[C@@H]1CN(c2ccncc2F)CCN1C(=O)N[C@H](C)c1cccn2nccc12 | 6650 | > 200 | 14 | 2 | efflux ratio at 1 h, 10 µM (MDR1): 3.7; CLint scaled at 1 µM [1]: 169 mL/min/kg; chromatographic logD [5]: 1.6; logP [6]: 2.1; Papp at 1 h, 10 µM [7]: 104 ×10⁻⁶ cm/s
24 | COc1cccc([C@@H](C)NC(=O)[C@H]2CC[C@H](c3ccncc3)CC2)c1 | 5030 |  | 974 | 98 | 
25 | COc1cccc([C@@H](C)NC(=O)N2CCC(c3ccncc3F)CC2)c1 | 31800 |  | 721 | 45 | 
26 | COc1cccc([C@@H](C)NC(=O)[C@H]2CC[C@H](c3ccncc3)C[C@H]2C)c1 | 33800 | 130 (≈ 45.8 µg/mL) | 963 | 45 | efflux ratio at 1 h, 10 µM (MDR1): 1.1; CLint scaled at 1 µM [1]: 90 mL/min/kg; Papp at 1 h, 10 µM [7]: 77.6 ×10⁻⁶ cm/s
27 | O=S(=O)(c1cccc2c(O)nccc12)N1CCCNCC1 [HYDROXYFASUDIL] |  | > 200 | 3820 |  | logP [6]: 1.43
28 | COc1cccc([C@@H](C)NC(=O)N2CCN(c3ccncc3F)CC2)c1 | 1830 |  | 126 | 7 | 
29 | COc1cccc([C@@H](C)NC(=O)N2CCC(c3ccncc3)CC2)c1 | 52800 |  | 673 | 74 | 

Source: ChEMBL document CHEMBL5131572, “Identification of a Potent, Selective, and Brain-Penetrant Rho Kinase Inhibitor and its Activity in a Mouse Model of Huntington's Disease” (J Med Chem, 2022)
